Values joined by “and” are separate entries in the source; they are usually repeats but may differ in a detail not shown here. Identical values can stand only once.
Columns and labels:
HT-29 cells [1] = test: In vitro toxicity test, crystal violet; assay type: cell-based, human; conditions: HT-29, 24 h; for IC50: concentration at 50% viability, mean (SD), n.d. = not detected as it is too high
Description: 96-well plates were prepared such that every well contains 10,000 cells in 100 μL medium, and the cells were allowed to adhere overnight.
To all wells but the positive control, 10 μL of each solution of the examined CA (2.4, 6, 12, 24, 48, and 120 mM) were added to reach final concentrations of 0.2, 0.5, 1, 2, 4, and 10 mM. To the positive control wells, 10 μL of H2O was added. Each condition was performed in triplicates. The plates were incubated at 37° C. and 5% CO2 for 24 h, after which the medium was removed, washed with fresh medium and 50 μL of crystal violet solution (0.5% crystal violet powder in 20 mL MeOH and 80 mL H2O) to each well and the plates were gently shaken (60 rpm) for 20 min. The plates were then washed with H2O until no more unbound dye was observed and allowed to dry overnight. 200 μL of MeOH were added to each well, and the plates were gently shaken (60 rpm) for 20 min, after which their absorbance at 560 nm was read with a plate reader. The toxicity of each concentration of CA was calculated according to equation 3:
(§1) A[CAx]—absorbance of the pre-toxified well in the presence of X mM of CA
(§2) A[blank]—absorbance of blank wells (contain nothing)
A[POS]—absorbance of well that contains no CA
(§3) Each experiment was performed on three independent occasions. Values are mean±SD of >3 repeats each performed in triplicate.

male mice (C57BL/6) = test: Pb-poisoned mice: blood lead level and urinary Pb by ICP-MS; assay type: in vivo; conditions: 30 mg kg^−1 day^−1, days 10-16; for BLL: blood on day 18, eight mice; for Urinary Pb (ppm): urine on day 18
Description: Peptide 8a was then tested in mice. 40 male mice (C57BL/6) aged 6-8 weeks were provided with 20 mM Pb(OAc)2 solution as the sole water supply for seven days (days 1-7). This poisoning route mimics chronic exposure in humans. Two days after returning to clean water (day 9), they were randomly divided into five groups of eight mice. They received a single treatment per day for seven days (days 10-16) of either CaNa2EDTA, DMSA, or 8a at a concentration of 30 mg kg^−1 except for group 1 that served as the negative control (Table 3).
Blood samples (100 μL) were collected before dosing the mice on days 10-15 and on day 18, which is two days after the last dosing and the day by which the experiment was terminated. Urine was also collected from 34 animals on day 18 and was kept frozen until analysis.

HT-29 cells [2] = test: In vitro recovery test: Pb detoxification of poisoned human cells, crystal violet; assay type: cell-based; conditions: highest concentration 10 mM (5 equiv.); Pb(NO3)2 2 mM; vs poisoned untreated cells; mean, SD
Description: (§4) Desalted peptides were then assessed for their ability to detoxify Pb (FIGS. 2a-d). The inventors designed two assays for rapid and reliable screening of potential CAs both in vivo on bacteria and then in vitro on human cell culture. Briefly, DH5a or HT-29 cells were first exposed to Pb(NO3)2 slightly below the minimal inhibitory concentration and then treated with various concentrations of the investigated CA, ranging from 0.1 to 10 equivalents. The viability of the cells was determined by colony counting or by crystal violet (Feoktistova et al, 2016), for the bacteria and the human cells, respectively, and was compared to poisoned cells that were not treated with any CA as the negative control. […] On the other hand, testing the compounds on human cells cannot be performed with insoluble compounds but is more relevant for medicinal purposes.
96-well plates were prepared such that every well contains 10,000 cells in 100 μL medium, and the cells were allowed to adhere overnight. To all wells but the positive control, 10 μL of 22 mM Pb(NO3)2 were added (final concentration 2 mM). 10 μL of H2O was added to the positive control wells. 60 min after addition of metal, 10 μL of each solution of the examined CA (2.4, 6, 12, 24, 48, and 120 mM) were added to reach final concentrations of 0.2, 0.5, 1, 2, 4, and 10 mM (which are 0.1, 0.25, 0.5, 1, 2, and 5 equivalents, respectively). To the positive control wells containing no metal and the negative control wells containing metal but no CA, 10 μL of H2O were added. Each condition was performed in triplicates. The plates were incubated at 37° C. and 5% CO2 for an additional 23 h, after which the medium was removed, washed with fresh medium and 50 μL of crystal violet solution (0.5% crystal violet powder in 20 mL MeOH and 80 mL H2O) to each well and the plates were gently shaken (60 rpm) for 20 min. The plates were then washed with H2O until no more unbound dye was observed and allowed to dry overnight. 200 μL of MeOH were added to each well, and the plates were gently shaken (60 rpm) for 20 min, after which their absorbance at 560 nm was read with a plate reader. The recovery of each concentration of CA was calculated according to equation 2:
as §1, §2
A[NEG]—absorbance of the pre-toxified well that contains no CA
as §3

DH5α E. coli = test: In vivo recovery test: Pb detoxification of poisoned bacteria, colony counting; assay type: cell-based; conditions: highest concentration 120 mM (10 equiv.); Pb(NO3)2 12 mM; vs poisoned untreated cells; mean
Description: as §4
HRMS (ESI) m/z calculated for C16H26N4O4SNa^+ [M+Na]^+ 427.14442; found: 427.14447 In vivo recovery tests A single colony of DH5a E. coli WT cells was grown overnight at 37° C. and 220 rpm in Tris Minimal Medium (TMM, pH 6.0; 5 mL) without antibiotics. The culture was then diluted to an OD600 of 0.03 with additional TMM to a total volume of 5 mL, and its OD600 was monitored. Upon cell density of 0.25 (which was achieved after 3-5 h), 1 mL of the culture was transferred into a cell culture tube and was labeled as the positive control. To additional 3 mL of the culture, 36 μL of Pb(NO3)2 1 M were added (final concentration of 12 mM). Both cultures were shaken at 37° C. and 220 rpm for an additional 5 h.
Aqueous stock solutions of each CA were plated on freshly prepared agar-LB plates such that the final concentration of each compound is equal to 0.5, 1, 2, 5, and 10 equivalents, compared to the amount of Pb(NO3)2 in 50 μL pre-toxified culture. The stock solutions were prepared such that plating and equally spreading 30 μL of each solution will provide the desired amount of CA. To additional two plates, 30 μL of H2O was added.
50 μL of the pre-toxified culture were homogenously spread to each CA-containing plate, 5 h after adding the metal to the culture. The Pb-containing culture was also plated on one of the two H2O-containing plates and was labeled as the negative control. Lastly, 50 μL of the non-toxified culture were platted on the second H2O-containing plate and was labeled as positive control. All plates (positive and negative control and five plates for each examined compound) were then incubated at 37° C. overnight. The plates were then imaged, and the colonies were counted (with Vilber Quantum Visualization System). The recovery of each concentration of CA was calculated according to equation 1: […]
#CAx—number of colonies of pre-toxified culture in a plate containing X mM of CA
#NEG—number of colonies of pre-toxified culture in a plate containing no CA
as §3

[3] = Aqueous solubility of the peptides; assay type: physicochemical; conditions: soluble^b = with the addition of 2 equiv. NaOH or 1 equiv. of Ca(OH)2
Source text: Attempts to solubilize them, including in different pH conditions, formulation with PEG or co-solvent systems with DMSO failed. Therefore, two analogs of 1 where βAla is substituted by PAsp or PhGlu, to form peptides 1a and 1b, respectively, were synthesized. […] Their low activity might be related to either (a) competition in coordination with Pb^2+ by the two carboxylates, which destabilizes the complexation, or (b) a decrease in their metal selectivity and coordination alkali or alkaline earth metal ions.

[4] = inhibition at the highest concentration (10 mM), mean, SD

Structure (SMILES) | IC50 (HT-29 cells [1]) | Toxicity Maximal inhibition (%) (HT-29 cells [1]; [4]) | BLL (male mice (C57BL/6); IV) | Urinary Pb (ppm) (male mice (C57BL/6); IV) | Recovery HT-29 (%) (HT-29 cells [2]) | Recovery DH5α (%) (DH5α E. coli) | IC50 (HT-29 cells [1]; Homo sapiens) | inhibition at 10000 µM (HT-29 cells [1]; Homo sapiens, inhibition at the highest concentration (10 mM), mean, SD, read-out: Toxicity Maximal inhibition (%)) | BLL (male mice (C57BL/6); Oral) | Urinary Pb (ppm) (male mice (C57BL/6); Oral) | Aqueous solubility [3]
O=C([O-])CN(CCN(CC(=O)[O-])CC(=O)[O-])CC(=O)[O-].[Ca+2].[Na+].[Na+] [Na2CaEDTA] | 3.9 mM | 63% | 25.7 ± 1.6 µg/dL | 210 ± 30 ppm | 95±16% and 95% | 182% | – | – | – | – | –
O=C(O)C(S)C(S)C(=O)O (centres unmarked) [DMSA, dimercaptosuccinic acid] | – | – | – | – | 110±10% and 110% | 165% | 3.7 mM | 77% | 23.3 ± 2.3 µg/dL | 340 ± 28 ppm | –
O=C1CCNC(=O)[C@H](Cc2c[nH]cn2)NC(=O)CCNC(=O)[C@H](Cc2c[nH]cn2)N1 [compound 4, His-βAla-His-βAla] | 5.8 mM | 62% | – | – | 106% | 80% | – | – | – | – | Soluble
